Reference: publication PMC8599359 (Molecular Neurobiology, 2021)

Legend:
[1] = molecular target: T1, MMP-1 (Homo sapiens, UniProt P03956); experiment: Fluorometric substrate assay (MMP inhibitor profiling kit); type: biochemical; details: human recombinant MMP-1, 60 min preincubation, four-parameter fit
T1 construct: purchased Enzo life sciences BML-AK308
Protocol: (§1) Kit contained a panel of ten MMPs and a quenched fluorogenic substrate OMNIMMP® RED. Composition of a quenched fluorogenic substrate was TQ3-GABA-Pro-Cha-Abu-Smc-His-Ala-Dab(6’-TAMRA)-Ala-Lys-NH2 [TQ3 = quencher; GABA = 4-aminobutyric acid; Cha = L-cyclohexylalanine; Abu = 2-aminobutyric acid; Smc = S-methyl-L-cysteine; Dab = 2,4-diaminobutyric acid; 6’-TAMRA = 6’-tetramethylrhodamine]. Experiment was performed as per instructions provided in the manufacturer’s manual. The assays were performed in a 96-well, black, flat, microplate format. The compound NNGH was provided as a prototypic control inhibitor. […] Untreated MMPs were used as control. The experiment was performed in biological triplicates. After 60-min incubation, fluorogenic substrate OMNIMMP® RED was added to each reaction/well to start the reaction. The plate was continuously read at Ex/Em = 545/576 nm (cutoff at 570 nm) for 30 min with 1-min time intervals at constant temperature, 37 °C, using Molecular Devices SpectraMax M3 plate reader with SoftMax Pro 6.2 software.

[2] = molecular target: T2, MMP-12 (Homo sapiens, UniProt P39900); experiment: as above; type: biochemical; details: human recombinant MMP-12, 60 min preincubation, four-parameter fit
T2 construct: purchased Enzo life sciences BML-AK308
Protocol: as §1

[3] = molecular target: T3, MMP-14 (Homo sapiens, UniProt P50281); experiment: as above; type: biochemical
T3 construct: purchased Enzo life sciences BML-AK308
Protocol: as §1

[4] = molecular target: T4, MMP-19 (Homo sapiens, UniProt Q99542); experiment: as above; type: biochemical; details: human recombinant MMP-19, 60 min preincubation, four-parameter fit
T4 construct: purchased Enzo life sciences BML-AK308
Protocol: as §1

[5] = molecular target: T5, MMP-3 (Homo sapiens, UniProt P08254); experiment: as above; type: biochemical; details: human recombinant MMP-3, 60 min preincubation, four-parameter fit
T5 construct: purchased Enzo life sciences BML-AK308
Protocol: as §1

[6] = molecular target: T6, MMP-7 (Homo sapiens, UniProt P09237); experiment: as above; type: biochemical; details: human recombinant MMP-7, 60 min preincubation, four-parameter fit
T6 construct: purchased Enzo life sciences BML-AK308
Protocol: as §1

[7] = molecular target: T7, MMP-8 (Homo sapiens, UniProt P22894); experiment: as above; type: biochemical
T7 construct: purchased Enzo life sciences BML-AK308
Protocol: as §1

[8] = Embryo phenotype assessments; type: in vivo, mouse; details: female, C3H/HeJ, mouse, in vivo, oral; GD 16.5, 50 mg/kg/day; read-out: Total viable embryos (%)
Description: (§2) For all animal experiments, C3H/HeJ (10–12 weeks of age, male and female) were purchased from the Jackson Laboratory (Bar Harbor, ME), and were housed in microisolator cages containing autoclaved corncob bedding, and maintained on a 12‐h light‐dark cycle in climate‐controlled laboratory animal facilities approved by the University of Nebraska Medical Center Institutional Animal Care and Use Committee (IACUC). Mice were given free access to irradiated rodent feed (TD. 180,911, Envigo Teklad diet, Madison, WI) and sterile water. Animals were acclimated to the environment for approximately 7–14 days to determine that they were healthy based on observed behavior and weight gain. A female was placed with a male overnight for the purpose of timed matings. The following morning males were removed from the cages and positive vaginal plugs were identified. […] The time of conception was considered to be midnight on the evening of the mating. Treatment of plugged females was started at the morning of the day of plug detection (gestation day (GD) 0.5). […] Pregnant dams were randomly assigned to DTG or vehicle (control) group. Weight gain in dams was measured on GD 0.5, 5.5, 10.5, and 15.5. At GD 16.5, dams were humanely euthanized, and embryos and placenta were harvested. Embryos were evaluated for NTDs. At the time of harvest, the total number of implants (litter size, resorption rates, or viable embryos) was recorded for each pregnancy. Further, whole brain tissues from normal viable embryos were isolated and processed for examination of MMP expression and activity.

[9] = test system: pregnant C3H/HeJ mice, embryos; experiment: Embryo phenotype assessments; type: in vivo, mouse
Description: as §2

[10] = test system: MMP-14; experiment: MMP expression in embryo brain (Western blot); type: in vivo, mouse; details: GD 16.5, DTG vs control
Protocol: (§3) At GD 16.5, embryo whole brain tissues were isolated and homogenized in lysis buffer. Whole brain tissue homogenates were analyzed for expression of MMP-2, 9, and 14 using Western blot assay. Six pups were randomly selected from 6 different dams for both DTG- and vehicle-treated groups. Tissue lysates were centrifuged at 16,000 × g at 4 °C for 20 min and supernatants were collected. Total protein levels in each sample were quantitated using Pierce™ BCA Protein Assay Kit (Thermo Fisher Scientific). Fifteen micrograms of protein for each sample was ran on 10% SDS–polyacrylamide gel. Proteins were transferred to activated PVDF membrane. Membranes were blocked with 5% non-fat milk (BIO-RAD) for 1 h and incubated with individual primary antibody overnight at 4 °C on a shaker. The primary antibodies used were rabbit monoclonal anti-MMP-2 (ab181286, abcam, Cambridge, MA), rabbit polyclonal anti-MMP-9 (ab38898, abcam), rabbit monoclonal anti-MMP-14 (ab51074, abcam), rabbit monoclonal GAPDH (Cell Signaling Technology, Inc., Danvers, MA), and mouse monoclonal β-actin (Santa Cruz Biotechnology, Dallas, TX). All the primary antibodies were used at 1:2000 dilution. After overnight incubation with primary antibody, the membranes were washed with Tris-buffered saline with 0.1% Tween® 20 detergent (TBST) three times (5 min each wash). Membranes were then incubated with secondary antibody for 1 h at room temperature. The secondary antibodies used were goat anti-rabbit IgG H&L (HRP) (ab205718, abcam) and goat anti-mouse IgG H&L (HRP) (ab205719, abcam). For secondary antibodies, 1:10,000 dilutions were used. Blots were developed using SuperSignal™ West Femto Maximum Sensitivity Substrate (Thermo Fisher Scientific) and iBright 750 Imaging System. Band intensity was analyzed using ImageJ software.

[11] = test system: MMP-2; experiment: MMP expression in embryo brain (Western blot); type: in vivo, mouse; details: GD 16.5, DTG vs control
Protocol: as §3

[12] = test system: MMP-9; experiment: MMP expression in embryo brain (Western blot); type: in vivo, mouse; details: GD 16.5, DTG vs control
Protocol: as §3

[13] = molecular target: HIV-1 integrase; details: read-out: IC50 as INSTI; cited from earlier work
[14] = GD 16.5, 50 mg/kg/day, of 103 viable
[15] = GD 16.5, 50 mg/kg/day, of 130 implants

T7 sequence (P22894 101-467): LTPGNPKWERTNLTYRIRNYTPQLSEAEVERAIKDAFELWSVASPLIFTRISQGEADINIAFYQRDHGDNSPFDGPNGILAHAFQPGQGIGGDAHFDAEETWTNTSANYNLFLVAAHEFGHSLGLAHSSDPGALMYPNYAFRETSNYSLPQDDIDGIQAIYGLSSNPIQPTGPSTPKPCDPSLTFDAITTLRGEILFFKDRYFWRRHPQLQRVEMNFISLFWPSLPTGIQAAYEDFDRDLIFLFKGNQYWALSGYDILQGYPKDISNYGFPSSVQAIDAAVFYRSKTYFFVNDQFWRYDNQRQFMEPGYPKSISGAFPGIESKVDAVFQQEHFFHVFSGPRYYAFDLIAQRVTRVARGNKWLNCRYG
T1 sequence (P03956 100-469): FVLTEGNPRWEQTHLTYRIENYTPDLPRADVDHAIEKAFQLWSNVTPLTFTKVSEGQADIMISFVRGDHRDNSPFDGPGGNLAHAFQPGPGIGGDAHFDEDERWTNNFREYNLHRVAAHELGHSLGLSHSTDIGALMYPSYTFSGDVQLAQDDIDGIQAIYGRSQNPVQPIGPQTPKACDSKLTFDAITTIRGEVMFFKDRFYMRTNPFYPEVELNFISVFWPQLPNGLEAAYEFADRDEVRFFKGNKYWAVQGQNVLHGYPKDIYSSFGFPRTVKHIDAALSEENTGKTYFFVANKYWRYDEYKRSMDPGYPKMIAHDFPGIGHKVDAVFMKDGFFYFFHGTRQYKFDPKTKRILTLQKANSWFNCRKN
T5 sequence (P08254 100-477): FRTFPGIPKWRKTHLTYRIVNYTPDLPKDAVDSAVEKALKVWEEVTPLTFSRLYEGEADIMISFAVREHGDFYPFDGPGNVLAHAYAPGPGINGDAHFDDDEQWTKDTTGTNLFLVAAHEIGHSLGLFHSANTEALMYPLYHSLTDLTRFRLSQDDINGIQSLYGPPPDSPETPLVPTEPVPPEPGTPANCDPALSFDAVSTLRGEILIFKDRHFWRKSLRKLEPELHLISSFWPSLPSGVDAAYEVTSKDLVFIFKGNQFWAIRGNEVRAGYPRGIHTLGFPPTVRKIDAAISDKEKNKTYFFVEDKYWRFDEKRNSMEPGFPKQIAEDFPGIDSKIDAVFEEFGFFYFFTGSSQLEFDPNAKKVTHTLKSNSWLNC
T4 sequence (Q99542 98-508): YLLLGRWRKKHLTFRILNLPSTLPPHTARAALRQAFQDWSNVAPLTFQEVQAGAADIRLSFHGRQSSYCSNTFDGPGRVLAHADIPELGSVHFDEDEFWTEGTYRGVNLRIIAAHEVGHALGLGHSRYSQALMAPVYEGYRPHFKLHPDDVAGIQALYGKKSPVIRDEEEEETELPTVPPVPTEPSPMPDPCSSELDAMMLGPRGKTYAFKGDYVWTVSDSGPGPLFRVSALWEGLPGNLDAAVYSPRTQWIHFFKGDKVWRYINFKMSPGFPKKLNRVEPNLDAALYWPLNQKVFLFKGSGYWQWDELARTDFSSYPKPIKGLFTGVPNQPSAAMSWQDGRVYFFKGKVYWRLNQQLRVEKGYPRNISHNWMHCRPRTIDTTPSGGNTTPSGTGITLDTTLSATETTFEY
T2 sequence (P39900 106-470): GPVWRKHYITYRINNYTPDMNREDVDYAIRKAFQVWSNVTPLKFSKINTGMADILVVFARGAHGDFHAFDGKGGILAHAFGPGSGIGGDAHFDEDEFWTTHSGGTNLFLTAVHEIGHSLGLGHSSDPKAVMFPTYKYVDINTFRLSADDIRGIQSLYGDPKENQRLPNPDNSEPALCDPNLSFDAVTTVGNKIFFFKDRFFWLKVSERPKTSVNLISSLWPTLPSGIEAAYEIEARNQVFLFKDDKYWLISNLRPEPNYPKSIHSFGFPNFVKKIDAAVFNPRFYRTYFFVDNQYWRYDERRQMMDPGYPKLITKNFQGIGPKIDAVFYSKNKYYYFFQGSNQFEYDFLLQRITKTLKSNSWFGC
T6 sequence (P09237 95-267): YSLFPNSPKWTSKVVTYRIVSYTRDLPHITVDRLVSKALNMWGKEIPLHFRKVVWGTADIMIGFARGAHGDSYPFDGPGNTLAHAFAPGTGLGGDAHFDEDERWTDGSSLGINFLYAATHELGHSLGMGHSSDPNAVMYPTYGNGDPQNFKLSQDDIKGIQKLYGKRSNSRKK

**Q.** With `C[C@@H]1CCO[C@H]2Cn3cc(C(=O)NCc4ccc(F)cc4F)c(=O)c(O)c3C(=O)N12` [DTG, Dolutegravir] as the compound, how does the IC50 [1] read?
**A.** 83.9 µM

**Q.** And the IC50 [2]?
**A.** 131 µM

**Q.** And the “inhibitory effect compared to doxycycline” value ([3]; MMP-14, 20 µM)?
**A.** higher inhibitory effect

**Q.** What about the IC50 ([3]; human recombinant MMP-14, 60 min preincubation, four-parameter fit) of the same compound?
**A.** 10.5 µM

**Q.** What about the IC50 [4] of the same compound?
**A.** 54 µM

**Q.** What about the IC50 [5] of the same compound?
**A.** 60.3 µM

**Q.** And the IC50 [6]?
**A.** 309 µM

**Q.** And the “inhibitory effect compared to doxycycline” value ([7]; MMP-8, 20 µM)?
**A.** higher inhibitory effect

**Q.** What about the IC50 ([7]; human recombinant MMP-8, 60 min preincubation, four-parameter fit) of the same compound?
**A.** 12.1 µM

**Q.** What about the viability [8] of the same compound?
**A.** 79.2%

**Q.** What about the “maternal body weight gain during gestation” value ([9]; 50 mg/kg/day oral GD 0.5-15.5, DTG vs control) of the same compound?
**A.** No differences

**Q.** What about the Abnormal/litter ([9]; GD 16.5, 50 mg/kg/day) of the same compound?
**A.** 0.05

**Q.** What about the “Implants/litter (mean litter size)” value ([9]; GD 16.5, 50 mg/kg/day) of the same compound?
**A.** 7.6

**Q.** And the Resorptions/litter ([9]; GD 16.5, 50 mg/kg/day)?
**A.** 1.5

**Q.** And the “Total resorptions (%)” value ([9]; GD 16.5, 50 mg/kg/day)?
**A.** 20.76%

**Q.** What about the Viable embryos/litter ([9]; GD 16.5, 50 mg/kg/day) of the same compound?
**A.** 6.05

**Q.** And the Total implants ([9]; GD 16.5, 50 mg/kg/day, 17 litters)?
**A.** 130

**Q.** What about the “Viable embryos abnormal, exencephaly (number)” value [9, 14] of the same compound?
**A.** 1

**Q.** And the “Viable embryos normal (number)” value [9, 14]?
**A.** 102

**Q.** And the “Total resorptions (number)” value [9, 15]?
**A.** 27

**Q.** And the “Total viable embryos (number)” value [9, 15]?
**A.** 103

**Q.** And the “protein levels of MMP-14 in embryo brain tissue” value [10]?
**A.** No significant differences

**Q.** What about the “protein levels of MMP-2 in embryo brain tissue” value [11] of the same compound?
**A.** No significant differences

**Q.** And the “protein levels of MMP-9 in embryo brain tissue” value [12]?
**A.** No significant differences

**Q.** What about the IC50 [13] of the same compound?
**A.** 0.0027 µM
